Test results reported in patent US20230057568A1, “COMPOUNDS FOR TREATING FAMILIAL DYSAUTONOMIA” (PTC THERAPEUTICS, INC., priority 2019, published 2023).

System: Elongator complex protein 1 (ELP1, also referred to as IKBKAP)
Assay: IKBKAP-HTRF Assay
Type: cell-based, human
Conditions: FD patient-derived fibroblasts GM04589, 48 hours incubation; for EC2x for IKBKAP protein expression (concentration producing two times the amount of IKBKAP protein vs DMSO vehicle control): 7-point concentration curve; for MFI (maximum fold increase in IKBKAP protein abundance relative to the vehicle control): HTRF
Protocol: The assay is used for the quantitative determination of Elongator complex protein 1 (ELP1, also referred to as IKBKAP) concentration in cell lysates using the HTRF® (Homogeneous Time-Resolved Fluorescence) technology. IKBKAP is detected in a sandwich HTRF assay by use of an anti-IKAP antibody labeled with a donor and an anti-IKAP antibody labeled with an acceptor.
Cells were thawed and incubated in DMEM-10% FBS for 72 hours. Cells were trypsinized, counted, and re-suspended to a concentration of 50,000 cells/mL in DMEM-10% FBS. A 199 μL, aliquot of the cell suspensions were plated at 10,000 cells per well in a 96 well microtiter plate and incubated for 3 to 5 hours. […] Test compounds were serially diluted 3.16-fold in 100% DMSO to generate a 7-point concentration curve. A 1 μL aliquot of 200× compound solution was transferred to cell-containing wells, and cells were incubated for 48 hours in a cell culture incubator (37° C., 5% CO2, 100% relative humidity). Triplicate samples were set up for each compound concentration. After 48 hours, the supernatant was removed from the cells and 50 μL of the 1× LB4 lysis buffer, containing protease inhibitors, was added to the cells and incubated with shaking at room temperature for 1 hour. A 36 μL aliquot of this lysate was subsequently transferred to the 384-well plate containing 4 μL of the antibody solution (1:50 dilution of anti IKAP d2 and anti-IKAP K(9+8) in detection buffer). The 384-well plate was then centrifuged for 1 minute to bring the solutions to the bottom of the plate and incubated overnight at 4° C. Fluorescence for each well of the plate at 665 nm and 620 nm was measured was on the EnVision plate reader (Perkin Elmer). The AF for each sample is calculated by: […]
wherein Signal is the normalized fluorescence for each sample well and Blank is the average normalized average fluorescence for the Blank control wells.
The maximum fold increase (MFI) in IKBKAP protein abundance for compounds of Formula (I) or a form thereof relative to the vehicle control are provided in Table 1. MFI was calculated by dividing the AF value for each sample well by the sample AF for the vehicle control wells.
The EC2× for IKBKAP protein expression obtained from the 7-point concentration curve generated for each test compound according to the protocol in Biological Example 1 are also provided in Table 1. The term “EC2× for IKBKAP protein expression” is defined as the concentration of test compound that is effective in producing two times the amount of IKBKAP protein in a FD patient cell compared to the amount produced from the DMSO vehicle control.

SMILES	EC2x for IKBKAP protein expression (concentration producing two times the amount of IKBKAP protein vs DMSO vehicle control)	MFI (maximum fold increase in IKBKAP protein abundance relative to the vehicle control)
Cc1c(C[C@H](C)N)sc2c(NCc3ncncc3F)nc(Cl)nc12 [Cpd 98, 6-[(2S)-2-aminopropyl]-2-chloro-N-[(5-fluoropyrimidin-4-yl)methyl]-7-methylthieno[3,2-d]pyrimidin-4-amine]	**** (between >0.005 μM and ≤0.02 μM)	***** (>4.9)
Cc1c(C[C@@H](C)CN)sc2c(NCc3ccco3)nc(Cl)nc12 [Cpd 72, 6-[(2R)-3-amino-2-methylpropyl]-2-chloro-N-[(furan-2-yl)methyl]-7-methylthieno[3,2-d]pyrimidin-4-amine]	*** (between >0.02 μM and ≤0.5 μM)	*** (between >2.9 and <3.9)
N#Cc1csc2c(NCc3cccs3)nc(Cl)nc12 [Cpd 84, 2-chloro-4-{[(thiophen-2-yl)methyl]amino}thieno[3,2-d]pyrimidine-7-carbonitrile]	*** (between >0.02 μM and ≤0.5 μM)	**** (between >3.9 and <4.9)
Cc1c(C[C@H](C)N)sc2c(NCc3ccno3)nc(Cl)nc12 [Cpd 39, 6-[(2S)-2-aminopropyl]-2-chloro-7-methyl-N-[(1,2-oxazol-5-yl)methyl]thieno[3,2-d]pyrimidin-4-amine]	*** (between >0.02 μM and ≤0.5 μM)	***** (>4.9)
CC[C@H](N)Cc1sc2c(NCc3ccncc3F)nc(Cl)nc2c1C [Cpd 53, 6-[(2S)-2-aminobutyl]-2-chloro-N-[(3-fluoropyridin-4-yl)methyl]-7-methylthieno[3,2-d]pyrimidin-4-amine]	***** (<0.005 μM)	***** (>4.9)
Cc1c(C[C@H](C)N)sc2c(NCc3ccnn3C)nc(Cl)nc12 [Cpd 81, 6-[(2S)-2-aminopropyl]-2-chloro-7-methyl-N-[(1-methyl-1H-pyrazol-5-yl)methyl]thieno[3,2-d]pyrimidin-4-amine]	* (EC2×>1 μM)	* (MFI<1.9)
C[C@H](N)Cc1sc2c(NCc3cccs3)nc(C#N)nc2c1C#N [Cpd 85, 6-[(2S)-2-aminopropyl]-4-{[(thiophen-2-yl)methyl]amino}thieno[3,2-d]pyrimidine-2,7-dicarbonitrile]	*** (between >0.02 μM and ≤0.5 μM)	*** (between >2.9 and <3.9)
Clc1nc(NCc2ccco2)c2scc(Br)c2n1 [Cpd 42, 7-bromo-2-chloro-N-[(furan-2-yl)methyl]thieno[3,2-d]pyrimidin-4-amine]	*** (between >0.02 μM and ≤0.5 μM)	***** (>4.9)
C[C@H](N)Cc1sc2c(NCc3cccs3)nc(Cl)nc2c1-c1ccccc1 [Cpd 87, 6-[(2S)-2-aminopropyl]-2-chloro-7-phenyl-N-[(thiophen-2-yl)methyl]thieno[3,2-d]pyrimidin-4-amine]	* (EC2×>1 μM)	* (MFI<1.9)
Cc1csc2c(NCc3ccco3)nc(Cl)nc12 [Cpd 18, 2-chloro-N-[(furan-2-yl)methyl]-7-methylthieno[3,2-d]pyrimidin-4-amine]	*** (between >0.02 μM and ≤0.5 μM)	***** (>4.9)
C[C@H](N)Cc1cc2ncnc(NCc3ccco3)c2s1 [Cpd 8, 6-[(2S)-2-aminopropyl]-N-[(furan-2-yl)methyl]thieno[3,2-d]pyrimidin-4-amine]	*** (between >0.02 μM and ≤0.5 μM)	*** (between >2.9 and <3.9)
Cc1c(C[C@H](C)N)sc2c(NCc3cnccn3)nc(Cl)nc12 [Cpd 32, 6-[(2S)-2-aminopropyl]-2-chloro-7-methyl-N-[(pyrazin-2-yl)methyl]thieno[3,2-d]pyrimidin-4-amine]	*** (between >0.02 μM and ≤0.5 μM)	**** (between >3.9 and <4.9)
Clc1nc(NCc2ccncc2)c2scc(Br)c2n1 [Cpd 43, 7-bromo-2-chloro-N-[(pyridin-4-yl)methyl]thieno[3,2-d]pyrimidin-4-amine]	*** (between >0.02 μM and ≤0.5 μM)	**** (between >3.9 and <4.9)
CC[C@H](N)Cc1sc2c(NCc3ncco3)nc(Cl)nc2c1C [Cpd 69, 6-[(2S)-2-aminobutyl]-2-chloro-7-methyl-N-[(1,3-oxazol-2-yl)methyl]thieno[3,2-d]pyrimidin-4-amine]	**** (between >0.005 μM and ≤0.02 μM)	***** (>4.9)
Cc1c(C[C@H](C)N)sc2c(NCc3ncc(F)s3)nc(Cl)nc12 [Cpd 93, 6-[(2S)-2-aminopropyl]-2-chloro-N-[(5-fluoro-1,3-thiazol-2-yl)methyl]-7-methylthieno[3,2-d]pyrimidin-4-amine]	**** (between >0.005 μM and ≤0.02 μM)	***** (>4.9)
CC[C@H](N)Cc1cc2nc(Cl)nc(NCc3cccs3)c2s1 [Cpd 10, 6-[(2S)-2-aminobutyl]-2-chloro-N-[(thiophen-2-yl)methyl]thieno[3,2-d]pyrimidin-4-amine]	*** (between >0.02 μM and ≤0.5 μM)	**** (between >3.9 and <4.9)
Cc1c(C[C@H](C)N)sc2c(NCc3ccccc3F)nc(Cl)nc12 [Cpd 44, 6-[(2S)-2-aminopropyl]-2-chloro-N-[(2-fluorophenyl)methyl]-7-methylthieno[3,2-d]pyrimidin-4-amine]	***** (<0.005 μM)	***** (>4.9)
CC[C@H](N)Cc1sc2c(NCc3ccncn3)nc(Cl)nc2c1C [Cpd 89, 6-[(2S)-2-aminobutyl]-2-chloro-7-methyl-N-[(pyrimidin-4-yl)methyl]thieno[3,2-d]pyrimidin-4-amine]	***** (<0.005 μM)	***** (>4.9)
C[C@H](N)Cc1sc2c(NCc3cccs3)nc(Cl)nc2c1Br [Cpd 82, 6-[(2S)-2-aminopropyl]-7-bromo-2-chloro-N-[(thiophen-2-yl)methyl]thieno[3,2-d]pyrimidin-4-amine]	***** (<0.005 μM)	***** (>4.9)
Cc1c(C[C@H](C)N)sc2c(NCc3nccs3)nc(Cl)nc12 [Cpd 29, 6-[(2S)-2-aminopropyl]-2-chloro-7-methyl-N-[(1,3-thiazol-2-yl)methyl]thieno[3,2-d]pyrimidin-4-amine]	***** (<0.005 μM)	***** (>4.9)
Cc1c(C[C@H](C)N)sc2c(NCc3ccco3)nc(C#N)nc12 [Cpd 21, 6-[(2S)-2-aminopropyl]-4-{[(furan-2-yl)methyl]amino}-7-methylthieno[3,2-d]pyrimidine-2-carbonitrile]	**** (between >0.005 μM and ≤0.02 μM)	***** (>4.9)
Cc1c(C[C@@H](N)CCF)sc2c(NCc3ccco3)nc(Cl)nc12 [Cpd 51, 6-[(2S)-2-amino-4-fluorobutyl]-2-chloro-N-[(furan-2-yl)methyl]-7-methylthieno[3,2-d]pyrimidin-4-amine]	***** (<0.005 μM)	***** (>4.9)
